Like-named read-outs stand apart in the source and are kept apart here.
What was measured:
CIA model rats = experiment: Pharmacodynamic evaluation on rheumatoid arthritis model (type II collagen-induced arthritis, CIA); assay type: in vivo, Wistar rat; settings: CIA Wistar rats; for degree of joint swelling: FIG. 2B; for gain of body weight: intraperitoneal injection, FIG. 2A
Method: The animal model used in this experiment was a type II collagen-induced arthritis animal model (CIA) established by using Wistar rat. On the 0 and 7th day of the experiment, rats were subcutaneously injected with a mixed solution of Bovine II Collagen (CII) and Incomplete Freund's Adjuvant (IFA) to establish a rat model of arthritis.
In the pharmacodynamic test of Compound 1, Compound 1 and the positive drug, methotrexate were dissolved in a solvent system consisting of dimethyl sulfoxide (DMSO), polyethylene glycol 400 (PEG 400) and physiological saline at a volume ratio of 1:10:9.
During the administration to the rats (day 0 to 27 of the experiment), the body weight of a rat was weighed every three days, and the growth was observed. After the joints of the rat began to swell, the degree of joint swelling was scored every two days.
Because the incidence of inflammation in fore paw is low and the hind paws are more prone to swelling and the degree of swelling is more serious, the sum of the scores of two hind paws is used to evaluate the incidence of arthritis in rats. The maximum sum of score is 8 points.
In this experiment, Wistar rats were used to establish a CIA animal model. Joints were taken on the 28th day for subsequent fixation, paraffin embedding, section, staining and histopathological observation. The experiment results are shown as follows: During the experiment, the weight of rats in the control group continued to increase.

hsDHODH = hsDHODH (Homo sapiens (Human), UniProt Q02127); experiment: Activity test at enzyme level: DHODH inhibition, DCIP absorbance at 600 nm; assay type: biochemical
Sequence of hsDHODH (Q02127 whole entry): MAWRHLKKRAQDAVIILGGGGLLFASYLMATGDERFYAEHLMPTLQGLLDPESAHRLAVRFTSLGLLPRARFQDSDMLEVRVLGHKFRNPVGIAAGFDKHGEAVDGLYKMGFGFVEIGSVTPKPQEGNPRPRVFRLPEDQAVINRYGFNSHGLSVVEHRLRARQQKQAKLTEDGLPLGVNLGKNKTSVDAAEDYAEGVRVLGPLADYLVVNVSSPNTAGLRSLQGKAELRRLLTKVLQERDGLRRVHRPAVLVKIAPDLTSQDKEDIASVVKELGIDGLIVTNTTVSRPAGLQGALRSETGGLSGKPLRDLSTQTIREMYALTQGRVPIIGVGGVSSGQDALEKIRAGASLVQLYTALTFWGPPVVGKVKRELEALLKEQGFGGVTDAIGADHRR
Method: Culture and Purification of hsDHODH Protein
The correctly sequenced recombinant plasmid pET-19b-DHODH was transformed into competent E. coli BL21 (DE3), and cultured on LB plate containing ampicillin. Colonies were randomly selected, inoculated into LB medium containing […], and incubate overnight at 37° C., 230 rpm. The cells were inoculated at a ratio of 1:200 in 500 mL of LB medium containing […] and expanded at 37° C., 230 rpm. When the OD value of the cells reached 0.8-1, IPTG was added into the medium to a final concentration of IPDG of 0.5 mM, and expression was induced overnight at 25° C. The induced cells were collected by centrifugation at […], 4° C., washed with deionized water, and centrifuged again to collect the bacterial pellet, which was stored at −80° C.
Purification of protein: cells were re-suspended in lysis liquid containing 50 mM HEPES (pH 8.0), 0.15 M NaCl, 10 mM imidazole, 10% glycerol, 0.1% Triton X-100, and a small amount of soy protease inhibitor added. After re-suspended and mixed homogeneously, cells were ultrasonically disrupted. The disruption solution was centrifuged for 30 min, and the supernatant and precipitate were taken for protein electrophoresis to determine the form of protein. The supernatant was loaded onto a Ni-NTA column, and the pass-through liquid was collected, and then the resin was washed for 3-4 times with a lysis liquid containing 20 mM imidazole, and finally eluted with a lysis liquid containing 300 mM imidazole. After elution, protein solution was collected. 10 μL of the above protein sample was taken for SDS-PAGE electrophoresis to determine the content of target protein. Finally, the eluted protein solution is dialyzed in the dialysis liquid to remove imidazole, thereby obtaining a pure protein.
Method for Testing Activities of Compounds at Enzyme Level
Principles of activity test at enzyme level: firstly, dihydroorotate (DHO) is oxidatively dehydrogenated by DHODH to form orotic acid (Orotate, OA), accompanied by reduction of Flavin mononucleotide (FMN) into reduced flavin mononucleotide (FMNH2) by accepting 2H+ and 2e−, then coenzyme Q (CoQ) as hydrogen acceptor accepting electron and proton from FMNH2 is reduced into reduced coenzyme Q (CoQH2), reduced coenzyme Q transfers electrons to a chromogenic substrate, […] (DCIP), and finally DCIP was reduced. […] The degree to which the substrate DHO is oxidized can be judged based on the degree of decrease in absorbance. The degree of oxidation of the substrate DHO per unit time is the initial rate of the enzymatic reaction. Upon addition of a inhibitor, the initial rate of the enzymatic reaction is reduced.
Substrate DHO was added to start the reaction with a DHO final concentration of 500 μM. The absorbance was read at 600 nm using a BioTek microplate reader and read every 30 s for 6 min. […] For calculating IC50 of a compound, Origin 8.0 was used to test the inhibition rate at least 8 concentrations.

[1] = pharmaceutically acceptable esters (prodrugs of A and B series), hsDHODH enzyme test, read-out: IC50
[2] = purified DHODH 10 nM, DHO 500 μM, CoQ 100 μM, DCIP 120 μM, read-out: IC50 (μM) hsDHODH

SMILES: CN(Cc1cnc2nc(N)nc(N)c2n1)c1ccc(C(=O)N[C@@H](CCC(=O)O)C(=O)O)cc1 [Methotrexate, reference compound]
- degree of joint swelling (CIA model rats; 0.3 mg/kg intraperitoneal, positive drug): significantly reduce the degree of joint swelling
- gain of body weight (CIA model rats; compared with model group): improve the condition of the rats and the slow gain of body weight

SMILES: CCCOC(=O)c1ccccc1/C=N/Nc1nc(-c2ccccc2Cl)cs1 [Compound A2, (E)-4-(2-chlorophenyl)-2-(2-propoxyformylbenzylidenehydrazino)thiazole]
- IC50 (hsDHODH; [1]): 1.4 ± 0.0661 µM

SMILES: CN(/N=C/c1ccccc1C(=O)O)c1nc(-c2ccccc2Cl)cs1 [Compound 1, (E)-4-(2-chlorophenyl)-2-[1-methyl-2-(2-carboxybenzylidene)hydrazino]thiazole]
- IC50 (hsDHODH; [2]): 0.0097 ± 0.0001 µM
- degree of joint swelling (CIA model rats; 5 mg/kg intraperitoneal, compared with model group): significantly reduced
- degree of joint swelling (CIA model rats; 30 mg/kg intraperitoneal, compared with model group): more significantly reduced
- gain of body weight (CIA model rats; compared with model group): improve the condition of the rats and the slow gain of body weight
- histopathological features of joint tissue (HE staining) (CIA model rats; joints taken on day 28, FIG. 3): significantly alleviated
- synovial hyperplasia and inflammatory cell infiltration (CIA model rats; tissue sections, compared with model group): greatly improved

SMILES: CC(C)OC(=O)OCOC(=O)c1ccccc1/C=N/Nc1nc(-c2ccccc2Cl)cs1 [Compound A10, ((isopropoxycarbonyl)oxy)methyl (E)-2-((2-(4-(2-chlorophenyl)thiazol-2-yl)hydrazono)methyl)benzoate]
- IC50 (hsDHODH; [1]): > 50 µM

SMILES: O=C(OCc1ccccc1)c1ccccc1/C=N/Nc1nc(-c2ccccc2Cl)cs1 [Compound A11, (E)-4-(2-chlorophenyl)-2-(2-benzyloxyformylbenzylidenehydrazino)thiazole]
- IC50 (hsDHODH; [1]): > 50 µM

SMILES: CC(C)OC(=O)OCOC(=O)c1ccccc1/C=N/N(C)c1nc(-c2ccccc2Cl)cs1 [Compound B11, ((isopropoxycarbonyl)oxy)methyl (E)-2-((2-(4-(2-chlorophenyl)thiazol-2-yl)-2-methylhydrazono)methyl)benzoate]
- IC50 (hsDHODH; [1]): > 50 µM

SMILES: Cc1ccc(/C=N/N(C)c2nc(-c3ccccc3Cl)cs2)c(C(=O)O)c1 [Compound 9, (E)-4-(2-chlorophenyl)-2-[1-methyl-2-(4-methyl-2-carboxybenzylidene)hydrazino]thiazole]
- IC50 (hsDHODH; [2]): 0.0084 ± 0.0001 µM
